Experimental findings from publication PMC10498667 (Chemical Science, 2023) are described below.

The target of one assay is T1, Aβ40 (Homo sapiens, UniProt P05067).
T1 construct: Ab40 ([…]-; purchased Peptide Institute, Inc. (Osaka, Japan)
Description: Aβ40 aggregation inhibition experiments (gel/western blot, TEM). Type of assay: biochemical. The following applies: flavonoid 50 μM, 24 h. How it is done: To verify whether a series of nine flavonoids can modulate the aggregation of Aβ with and without metal ions, the molecular weight (MW) distribution and morphology of the resultant Aβ species were determined by gel electrophoresis with western blotting (gel/western blot) using an anti-Aβ antibody (6E10) and transmission electron microscopy (TEM), respectively. Two types of experiments were carried out employing two major Aβ isoforms, i.e., Aβ42 and Aβ40:[25] (i) inhibition studies to identify the effect of 1–5, 1a, 1b, 4a, and 4b on the formation of Aβ aggregates; (ii) disaggregation studies to evaluate if the flavonoids with reactivities towards Aβ aggregation in inhibition studies can disassemble preformed Aβ aggregates or modulate their further aggregation, as illustrated in Fig. 4 and S5–S9. ^† Moreover, the solutions containing the flavonoids and Cu(II) were probed by electronic absorption (Abs) spectroscopy to monitor their metal binding. […] As expected, no Abs change of 1a and 4a composed of methoxy groups on the A ring was detected by addition of Cu(II). […]
Ab Aggregation Experiments. Ab was dissolved in ammonium hydroxide [1% w/w NH4OH (aq)] and the resulting solution was aliquoted, lyophilized overnight, and stored at –80 °C. A stock solution of Ab was then prepared by dissolving the lyophilized peptide with NH4OH (1% w/w, aq; 10 µL) and diluting with ddH2O. All Ab samples were prepared following previously reported procedures.21,22 The concentration of the peptide solution was determined by measuring its […]
solution (20 mM HEPES, pH 7.4, 150 mM NaCl) was used for preparing Ab samples. For the inhibition studies, flavonoids (final concentration, 50 µM; 1% v/v DMSO) were added to the samples of Ab (25 µM) in the absence and presence of CuCl2 or ZnCl2 (25 µM) followed by incubation for 24 h at 37 °C with constant agitation. For the disaggregation studies, Ab (25 µM) was incubated with and without CuCl2 or ZnCl2 (25 µM) for 24 h at 37 °C with constant agitation to generate preformed Ab aggregates. The resultant Ab aggregates were then treated with flavonoids (50 µM) and incubated for additional 24 h with constant agitation. For the additional disaggregation experiments, preformed Ab42 aggregates (25 µM) or Ab42 seeds (10% v/v) with or without metal ions (25 µM for CuCl2 and ZnCl2) were incubated with flavonoids (50 µM) for 24 h with constant agitation. The resultant Ab aggregates were then treated with freshly prepared Ab42 […]
(25 µM) and incubated for additional 24 h with constant agitation.
Gel/Western Blot. The resultant Ab species from the aggregation experiments were analyzed by gel/Western blot using an anti-Ab antibody (6E10, Covance, Princeton, NJ, USA).21,22 Each sample (10 µL) was separated on a 10–20% tricine gel (Invitrogen). Following separation, the proteins were transferred onto nitrocellulose membranes and blocked with bovine serum albumin (BSA, 3% w/v; Sigma-Aldrich) in Tris-buffered saline (TBS) containing 0.1% v/v Tween-20 (Sigma-Aldrich) (TBS-T) for 4 h at room temperature or overnight at 4 °C. The membranes were incubated with 6E10 (1:2,000) in the solution of BSA (2% w/v in TBS-T) for 4 h at room temperature. […] A homemade ECL kit21–23 was used to visualize gel/Western blots on a ChemiDoc MP Imaging System (Bio-Rad).
TEM. Samples for TEM were prepared following previously reported methods.22,24 Glow-discharged grids (Formvar/Carbon 300-mesh; Electron Microscopy Sciences, Hatfield, PA, USA) were treated with Ab samples (25 µM; 7.5 µL) for 2 min at room temperature. Excess sample was removed using filter paper followed by washing with ddH2O (3x). Each grid incubated with uranyl […]
For orientation: Immunoblotting shows a protein as a band on a membrane.

Another assay addresses T2, metal-free Aβ42 (Homo sapiens, UniProt P05067).
T2 construct: purchased Peptide Institute, Inc. (Osaka, Japan)
Description: CD spectroscopy of metal-free Aβ42 (BeStSel). Particulars: Aβ42 100 μM; flavonoid 200 μM; 37 °C; 24 h. As to the method: CD Spectroscopy. Metal-free Ab42 (100 µM) was incubated with and without 5, 4b, and 6 (200 µM) for 24 h in 20 mM HEPES, pH 7.4, 150 mM NaF at 37 °C with constant agitation (250 rpm).
CD spectra were collected in the range from 195 nm to 255 nm. The digital integration time, the bandwidth, and the scanning speed were 4 s, 2 nm, and 20 nm/min, respectively. Each spectrum was smoothed by Fourier transforms. The change in the secondary structure of metal-free Ab42 […]
treated with a flavonoid was analyzed following the previously reported BeStSel method.25 The measurements were conducted in triplicate. […]
mM HEPES, pH 7.4, 150 mM NaCl) with or without Ab40 (25 µM) in the absence and presence of CuCl2 or ZnCl2 (25 µM). Abs spectra of the samples were collected for 24 h at 37 °C.
6c [3-(3,4-Dihydroxyphenyl)-5,6,7-trimethoxy-4H-chromen-4-one]. […] After 4 h, the reaction mixture was extracted in a solution of ethyl acetate (EtOAc) and saturated sodium acetate (NaOAc; 0.12 g/mL). The organic layer was collected, washed with brine, dried with sodium sulfate ([…]), filtered, and concentrated. The crude product was purified by column chromatography (SiO2; EtOAc:hexanes = 1:1) to yield 6c [Rf = 0.3; yellow powder; 650 mg, 2.0 mmol (yield = 31%)] that was used for the next step without further purification. 1H NMR [400 MHz, […]

Values joined by “and” are separate entries in the source; they are usually repeats but may differ in a detail not shown here. Identical values can stand only once.

T2 sequence (P05067 672-713 limits assumed): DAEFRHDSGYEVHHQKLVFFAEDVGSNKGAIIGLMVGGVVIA
T1 sequence (P05067 672-711 limits assumed): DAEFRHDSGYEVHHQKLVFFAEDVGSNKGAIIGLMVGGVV

As to `O=c1c(-c2ccccc2)coc2cc(O)c(O)c(O)c12` [4b, 5,6,7-trihydroxyisoflavone], the “morphology of resultant aggregates (TEM)” value at Aβ40 (Cu(II)–Aβ40) was “both amorphous and fibrillary aggregates”. Also, on Aβ40 (Cu(II)–Aβ40 and Zn(II)–Aβ40), the “MW distribution of resultant species (gel/western blot)” value (from here on “MW distribution … (gel/western blot)”) is given as “diverse MW distribution”. In addition, at Aβ40 (Zn(II)–Aβ40), the “morphology of resultant aggregates (TEM)” value is “a bunch of fibrillary species with chopped filamentous aggregates”. On Aβ40 (metal-free Aβ40), the “MW distribution … (gel/western blot)” value is on record as “reduced”; the “morphology of resultant aggregates (TEM)” value was “shorter and thinner fibrils”. In addition, on metal-free Aβ42, the “Random Coils (%) of metal-free Aβ42” value is 53.8% and 53.8 (±5.9) %; the “Turn (%) of metal-free Aβ42” value is reported as 10.3%; the “α-Helix (%) of metal-free Aβ42” value amounted to 0.4%; the “β-Sheet (%) of metal-free Aβ42” value is 35.5% and 35.5 (±5.7) %.

As to `O=c1cc(-c2ccccc2)oc2ccc(O)c(O)c12` [compound 3, 5,6-dihydroxyflavone], the “morphology of resultant aggregates (TEM)” value at Aβ40 (Cu(II)–Aβ40) was “both amorphous and fibrillary aggregates”.

Take `O=c1cc(-c2ccccc2)oc2cc(O)c(O)c(O)c12` [compound 4, baicalein]: the “morphology of resultant aggregates (TEM)” value at Aβ40 (Cu(II)–Aβ40) is “both amorphous and fibrillary aggregates”. Besides, on Aβ40 (metal-free Aβ40), the “MW distribution … (gel/western blot)” value was “reduced”; the “morphology of resultant aggregates (TEM)” value was “shorter and thinner fibrils”.

On to `O=c1cc(-c2ccccc2)oc2c(Cl)c(O)c(O)c(O)c12` [compound 5, 8-chlorobaicalein], for which, on Aβ40 (Cu(II)–Aβ40), the “morphology of resultant aggregates (TEM)” value is listed as “chopped filamentous Cu(II)–Aβ40 aggregates”. Besides, on Aβ40 (metal-free Aβ40), the “MW distribution … (gel/western blot)” value is listed as “increased the band intensity”; the “morphology of resultant aggregates (TEM)” value was “shorter and thinner fibrils”. Further, on metal-free Aβ42, the “Random Coils (%) of metal-free Aβ42” value was 19.7% and 19.7 (±15.5) %; the “Turn (%) of metal-free Aβ42” value came to 12.5%; the “α-Helix (%) of metal-free Aβ42” value was 1.2%; the “β-Sheet (%) of metal-free Aβ42” value was 66.7% and 66.7 (±15.3) %.

In the case of `O=c1c(-c2ccc(O)c(O)c2)coc2cc(O)c(O)c(O)c12` [compound 6, 3-(3,4-dihydroxyphenyl)-5,6,7-trihydroxy-4H-chromen-4-one], on metal-free Aβ42, the “Random Coils (%) of metal-free Aβ42” value is listed as 13.6%, the “Turn (%) of metal-free Aβ42” value came to 38.1%, the “α-Helix (%) of metal-free Aβ42” value was 1.5% and the “β-Sheet (%) of metal-free Aβ42” value came out at 46.7%.
